Our source for the Kd values is ChEMBL document CHEMBL3991601, “The target landscape of clinical kinase drugs” (Science, 2017).

One may read the Kd as the constant that tells how readily two partners part at equilibrium.

The target of experiment [1] is Serine/threonine-protein kinase MRCK beta (Homo sapiens, UniProt Q9Y5S2).
The target in experiment [2] is Dual specificity protein kinase CLK1 (Homo sapiens, UniProt P49759).
In experiment [3] the target is Casein kinase II subunit alpha' (Homo sapiens, UniProt P19784).
Casein kinase II subunit alpha', sequence (P19784 whole entry): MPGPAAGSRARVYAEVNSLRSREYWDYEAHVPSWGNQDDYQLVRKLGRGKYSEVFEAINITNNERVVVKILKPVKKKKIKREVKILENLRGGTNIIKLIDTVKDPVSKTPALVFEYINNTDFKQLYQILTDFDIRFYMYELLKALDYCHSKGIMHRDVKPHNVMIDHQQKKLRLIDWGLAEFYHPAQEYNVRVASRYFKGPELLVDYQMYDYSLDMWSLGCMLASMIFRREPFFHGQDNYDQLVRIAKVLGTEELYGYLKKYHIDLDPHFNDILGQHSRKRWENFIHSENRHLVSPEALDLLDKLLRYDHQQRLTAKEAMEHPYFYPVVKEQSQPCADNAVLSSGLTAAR
Experiment [4] deals with T1, Probable ATP-dependent RNA helicase DDX6 (Homo sapiens, UniProt P26196).
T1 sequence (P26196 whole entry): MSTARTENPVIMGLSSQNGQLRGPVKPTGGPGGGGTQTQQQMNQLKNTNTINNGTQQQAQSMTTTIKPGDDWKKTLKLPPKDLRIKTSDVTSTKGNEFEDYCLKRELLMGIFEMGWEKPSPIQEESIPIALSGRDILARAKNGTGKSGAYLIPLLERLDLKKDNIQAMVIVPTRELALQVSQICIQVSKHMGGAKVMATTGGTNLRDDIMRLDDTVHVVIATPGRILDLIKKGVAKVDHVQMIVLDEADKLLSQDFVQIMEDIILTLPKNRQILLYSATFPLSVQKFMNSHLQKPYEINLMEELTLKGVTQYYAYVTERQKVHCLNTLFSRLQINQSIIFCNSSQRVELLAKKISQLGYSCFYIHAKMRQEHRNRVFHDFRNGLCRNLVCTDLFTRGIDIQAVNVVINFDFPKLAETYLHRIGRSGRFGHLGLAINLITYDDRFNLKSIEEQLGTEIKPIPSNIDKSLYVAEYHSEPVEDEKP

The target of a further experiment is Ephrin type-A receptor 7 (Homo sapiens, UniProt Q15375).
Ephrin type-A receptor 7, sequence (Q15375 whole entry): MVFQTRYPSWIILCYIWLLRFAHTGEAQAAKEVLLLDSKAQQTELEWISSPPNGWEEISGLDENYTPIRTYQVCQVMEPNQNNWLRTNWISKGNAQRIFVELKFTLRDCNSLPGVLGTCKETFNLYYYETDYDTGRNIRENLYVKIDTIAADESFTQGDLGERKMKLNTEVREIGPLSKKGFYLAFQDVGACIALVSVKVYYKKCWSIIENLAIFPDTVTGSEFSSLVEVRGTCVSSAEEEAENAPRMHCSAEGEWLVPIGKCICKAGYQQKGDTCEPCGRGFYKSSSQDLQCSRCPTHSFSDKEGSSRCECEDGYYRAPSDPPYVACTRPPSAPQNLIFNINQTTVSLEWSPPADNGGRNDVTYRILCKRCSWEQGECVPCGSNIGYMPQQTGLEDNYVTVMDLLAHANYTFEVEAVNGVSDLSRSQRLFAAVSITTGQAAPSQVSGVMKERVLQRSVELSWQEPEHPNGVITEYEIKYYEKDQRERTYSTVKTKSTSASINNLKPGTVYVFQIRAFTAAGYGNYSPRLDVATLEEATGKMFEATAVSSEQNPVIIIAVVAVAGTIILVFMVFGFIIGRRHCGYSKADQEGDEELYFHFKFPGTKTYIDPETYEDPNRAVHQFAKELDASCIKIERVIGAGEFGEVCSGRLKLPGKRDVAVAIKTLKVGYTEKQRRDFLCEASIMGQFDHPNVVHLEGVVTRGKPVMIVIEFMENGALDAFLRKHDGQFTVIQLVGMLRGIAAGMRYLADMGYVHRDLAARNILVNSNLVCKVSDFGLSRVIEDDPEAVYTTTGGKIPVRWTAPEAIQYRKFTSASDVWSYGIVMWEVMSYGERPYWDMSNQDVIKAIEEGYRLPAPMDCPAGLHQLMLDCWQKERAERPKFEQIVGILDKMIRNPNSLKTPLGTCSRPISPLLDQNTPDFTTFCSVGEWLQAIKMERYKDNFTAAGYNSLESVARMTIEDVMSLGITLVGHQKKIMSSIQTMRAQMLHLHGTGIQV
The target of experiment [5] is Mitogen-activated protein kinase kinase kinase 4 (Homo sapiens, UniProt Q9Y6R4).
Experiment [6] has as its target Protein kinase C beta type (Homo sapiens, UniProt P05771).
The target in experiment [7] is Protein-tyrosine kinase 2-beta (Homo sapiens, UniProt Q14289).
Protein-tyrosine kinase 2-beta, sequence (Q14289 whole entry): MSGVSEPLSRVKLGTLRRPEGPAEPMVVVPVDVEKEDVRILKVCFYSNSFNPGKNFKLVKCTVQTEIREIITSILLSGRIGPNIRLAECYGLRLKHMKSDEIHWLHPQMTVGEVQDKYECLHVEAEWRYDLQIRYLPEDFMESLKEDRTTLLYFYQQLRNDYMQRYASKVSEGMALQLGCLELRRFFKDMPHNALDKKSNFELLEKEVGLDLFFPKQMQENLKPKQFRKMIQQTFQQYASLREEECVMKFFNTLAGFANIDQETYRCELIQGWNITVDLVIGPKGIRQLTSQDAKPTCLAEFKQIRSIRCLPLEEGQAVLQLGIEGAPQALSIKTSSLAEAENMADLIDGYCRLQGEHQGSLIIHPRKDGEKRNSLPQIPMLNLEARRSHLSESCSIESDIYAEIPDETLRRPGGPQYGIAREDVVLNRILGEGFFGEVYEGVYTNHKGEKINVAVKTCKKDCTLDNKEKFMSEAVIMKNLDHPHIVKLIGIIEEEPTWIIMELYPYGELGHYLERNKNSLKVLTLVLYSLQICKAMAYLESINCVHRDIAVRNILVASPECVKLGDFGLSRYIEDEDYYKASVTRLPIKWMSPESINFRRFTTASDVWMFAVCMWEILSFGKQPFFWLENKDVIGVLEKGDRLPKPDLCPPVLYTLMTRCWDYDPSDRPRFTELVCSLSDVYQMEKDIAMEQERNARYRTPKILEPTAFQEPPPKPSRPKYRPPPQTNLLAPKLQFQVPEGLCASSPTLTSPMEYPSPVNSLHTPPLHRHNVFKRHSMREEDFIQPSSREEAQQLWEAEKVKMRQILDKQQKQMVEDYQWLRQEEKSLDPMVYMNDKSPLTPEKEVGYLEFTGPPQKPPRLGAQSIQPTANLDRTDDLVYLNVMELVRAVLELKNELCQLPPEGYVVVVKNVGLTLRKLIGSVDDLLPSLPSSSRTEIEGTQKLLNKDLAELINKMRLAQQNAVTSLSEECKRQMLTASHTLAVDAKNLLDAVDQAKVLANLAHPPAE
Experiment [8] has as its target Ribosomal protein S6 kinase alpha-5 (Homo sapiens, UniProt O75582).
Experiment [9] addresses Ribosomal protein S6 kinase beta-1 (Homo sapiens, UniProt P23443).
Experiment [10] has as its target T2, Serine/threonine-protein kinase TAO1 (Homo sapiens, UniProt Q7L7X3).
T2 sequence (Q7L7X3 whole entry): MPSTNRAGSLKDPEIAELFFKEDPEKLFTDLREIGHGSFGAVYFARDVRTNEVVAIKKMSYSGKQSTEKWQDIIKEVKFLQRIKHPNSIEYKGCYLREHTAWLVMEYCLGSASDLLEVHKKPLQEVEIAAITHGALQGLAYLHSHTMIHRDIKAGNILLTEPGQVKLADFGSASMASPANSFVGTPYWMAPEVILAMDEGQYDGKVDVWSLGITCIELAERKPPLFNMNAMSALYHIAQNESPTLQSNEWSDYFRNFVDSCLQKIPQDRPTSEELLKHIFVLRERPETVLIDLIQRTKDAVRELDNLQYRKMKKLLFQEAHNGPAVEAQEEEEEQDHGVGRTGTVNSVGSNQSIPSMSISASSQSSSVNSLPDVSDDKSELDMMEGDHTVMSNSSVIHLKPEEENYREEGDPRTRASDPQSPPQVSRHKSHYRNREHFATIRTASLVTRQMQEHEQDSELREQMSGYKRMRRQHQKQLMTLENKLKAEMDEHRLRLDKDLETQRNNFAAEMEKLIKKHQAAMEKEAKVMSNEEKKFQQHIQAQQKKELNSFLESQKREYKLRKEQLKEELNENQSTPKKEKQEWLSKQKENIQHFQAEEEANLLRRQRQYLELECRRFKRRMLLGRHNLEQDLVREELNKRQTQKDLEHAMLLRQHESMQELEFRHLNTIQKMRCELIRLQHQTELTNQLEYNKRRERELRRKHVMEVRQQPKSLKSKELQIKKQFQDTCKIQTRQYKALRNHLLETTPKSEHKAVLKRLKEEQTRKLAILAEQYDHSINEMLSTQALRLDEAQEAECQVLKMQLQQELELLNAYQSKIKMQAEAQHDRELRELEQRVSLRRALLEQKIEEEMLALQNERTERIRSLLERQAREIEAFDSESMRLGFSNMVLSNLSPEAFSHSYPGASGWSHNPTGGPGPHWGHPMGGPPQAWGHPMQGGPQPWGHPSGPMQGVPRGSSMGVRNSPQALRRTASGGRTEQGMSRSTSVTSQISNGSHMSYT

In experiment [11] the target is T3, Tyrosine-protein kinase Tec (Homo sapiens, UniProt P42680).
T3 sequence (P42680 whole entry): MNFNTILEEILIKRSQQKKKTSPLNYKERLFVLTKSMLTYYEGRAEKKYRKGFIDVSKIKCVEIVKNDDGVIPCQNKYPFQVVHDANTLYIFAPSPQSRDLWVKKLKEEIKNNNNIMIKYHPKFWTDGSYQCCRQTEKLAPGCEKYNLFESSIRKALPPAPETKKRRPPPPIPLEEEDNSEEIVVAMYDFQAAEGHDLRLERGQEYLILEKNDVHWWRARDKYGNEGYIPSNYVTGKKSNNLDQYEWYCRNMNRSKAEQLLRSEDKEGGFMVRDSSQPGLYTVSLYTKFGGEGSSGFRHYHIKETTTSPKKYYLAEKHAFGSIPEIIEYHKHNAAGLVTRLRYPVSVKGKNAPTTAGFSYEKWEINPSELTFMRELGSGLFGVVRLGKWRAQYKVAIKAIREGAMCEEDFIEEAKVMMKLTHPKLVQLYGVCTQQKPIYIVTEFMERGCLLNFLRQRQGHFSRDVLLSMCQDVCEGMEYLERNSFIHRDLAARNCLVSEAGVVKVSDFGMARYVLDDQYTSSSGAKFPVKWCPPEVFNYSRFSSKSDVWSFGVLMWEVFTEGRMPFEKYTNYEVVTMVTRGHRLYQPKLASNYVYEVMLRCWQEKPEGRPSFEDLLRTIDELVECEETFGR

Calls of active or inactive are those of the source. For most assays here, no stated cut-off is given here; in the data, actives have a measured Kd and inactives only a lower limit.

Ribosomal protein S6 kinase alpha-5, sequence (O75582 whole entry): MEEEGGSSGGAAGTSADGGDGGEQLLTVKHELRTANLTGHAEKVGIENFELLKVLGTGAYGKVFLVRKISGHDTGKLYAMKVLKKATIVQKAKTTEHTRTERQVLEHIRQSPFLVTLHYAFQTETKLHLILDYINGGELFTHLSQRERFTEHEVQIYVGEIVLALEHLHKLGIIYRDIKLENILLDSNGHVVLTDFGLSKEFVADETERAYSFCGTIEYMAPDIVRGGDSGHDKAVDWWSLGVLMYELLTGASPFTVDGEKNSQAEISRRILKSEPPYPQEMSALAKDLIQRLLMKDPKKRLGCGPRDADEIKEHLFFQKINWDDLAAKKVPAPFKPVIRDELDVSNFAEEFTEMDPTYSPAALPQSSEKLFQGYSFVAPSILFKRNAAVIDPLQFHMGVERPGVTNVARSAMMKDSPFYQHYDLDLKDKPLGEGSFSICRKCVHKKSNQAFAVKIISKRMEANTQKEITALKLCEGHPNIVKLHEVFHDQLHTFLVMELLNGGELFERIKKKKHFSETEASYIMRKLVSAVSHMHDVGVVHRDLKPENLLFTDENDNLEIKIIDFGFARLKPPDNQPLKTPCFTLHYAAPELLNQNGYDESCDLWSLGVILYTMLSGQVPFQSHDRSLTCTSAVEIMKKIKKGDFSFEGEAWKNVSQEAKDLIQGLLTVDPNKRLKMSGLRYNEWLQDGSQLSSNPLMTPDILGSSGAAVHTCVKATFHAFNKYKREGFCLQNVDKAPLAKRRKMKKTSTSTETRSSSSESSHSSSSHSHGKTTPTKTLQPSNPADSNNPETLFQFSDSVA
Protein kinase C beta type, sequence (P05771 whole entry): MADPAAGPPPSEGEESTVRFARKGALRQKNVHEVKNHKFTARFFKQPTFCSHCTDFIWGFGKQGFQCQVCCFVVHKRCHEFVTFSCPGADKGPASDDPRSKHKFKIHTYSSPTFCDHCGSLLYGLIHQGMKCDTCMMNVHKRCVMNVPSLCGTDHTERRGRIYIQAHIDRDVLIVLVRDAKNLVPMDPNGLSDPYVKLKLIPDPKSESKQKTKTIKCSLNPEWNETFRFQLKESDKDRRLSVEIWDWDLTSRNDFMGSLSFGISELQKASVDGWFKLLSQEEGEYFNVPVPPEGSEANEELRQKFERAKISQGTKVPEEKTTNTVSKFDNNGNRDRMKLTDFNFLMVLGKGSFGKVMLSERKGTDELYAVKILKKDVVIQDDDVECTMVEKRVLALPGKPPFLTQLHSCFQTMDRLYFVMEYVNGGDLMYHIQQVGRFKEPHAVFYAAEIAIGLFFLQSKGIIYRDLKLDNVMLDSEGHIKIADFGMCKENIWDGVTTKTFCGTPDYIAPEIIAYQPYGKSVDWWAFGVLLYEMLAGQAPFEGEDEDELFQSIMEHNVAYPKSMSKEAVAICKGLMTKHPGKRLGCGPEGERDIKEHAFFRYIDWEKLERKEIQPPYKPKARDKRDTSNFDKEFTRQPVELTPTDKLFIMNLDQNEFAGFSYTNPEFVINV
Ribosomal protein S6 kinase beta-1, sequence (P23443 whole entry): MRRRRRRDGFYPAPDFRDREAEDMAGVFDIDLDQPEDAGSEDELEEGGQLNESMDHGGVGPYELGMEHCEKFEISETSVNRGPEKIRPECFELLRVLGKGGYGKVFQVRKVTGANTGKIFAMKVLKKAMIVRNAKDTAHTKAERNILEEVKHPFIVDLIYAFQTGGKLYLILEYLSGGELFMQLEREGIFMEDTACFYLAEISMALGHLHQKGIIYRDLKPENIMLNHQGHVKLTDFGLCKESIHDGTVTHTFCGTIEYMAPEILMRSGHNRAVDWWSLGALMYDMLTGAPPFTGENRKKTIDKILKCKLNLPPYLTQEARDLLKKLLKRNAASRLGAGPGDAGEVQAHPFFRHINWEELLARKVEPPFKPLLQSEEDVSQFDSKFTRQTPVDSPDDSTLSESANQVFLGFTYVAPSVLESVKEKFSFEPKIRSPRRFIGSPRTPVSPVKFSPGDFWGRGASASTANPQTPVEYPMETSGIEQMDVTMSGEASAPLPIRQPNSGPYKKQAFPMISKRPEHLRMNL
Dual specificity protein kinase CLK1, sequence (P49759 whole entry): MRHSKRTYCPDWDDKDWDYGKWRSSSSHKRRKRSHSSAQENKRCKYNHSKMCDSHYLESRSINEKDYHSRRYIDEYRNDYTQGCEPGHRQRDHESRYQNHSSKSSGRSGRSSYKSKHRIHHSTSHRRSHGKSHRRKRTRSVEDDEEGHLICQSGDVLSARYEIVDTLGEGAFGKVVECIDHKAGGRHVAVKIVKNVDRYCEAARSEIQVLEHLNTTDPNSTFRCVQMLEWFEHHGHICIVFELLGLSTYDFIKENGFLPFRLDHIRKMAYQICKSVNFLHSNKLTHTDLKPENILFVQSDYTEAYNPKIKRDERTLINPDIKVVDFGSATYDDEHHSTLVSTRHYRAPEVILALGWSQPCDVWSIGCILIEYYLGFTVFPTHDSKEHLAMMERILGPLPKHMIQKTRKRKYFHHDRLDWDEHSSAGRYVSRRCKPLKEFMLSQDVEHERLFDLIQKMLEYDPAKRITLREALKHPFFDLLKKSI

As for `c1cc(OCCN2CCCCC2)cc(-c2n[nH]c3ccc(-c4nc[nH]n4)cc23)c1` [CC-401], the Kd is > 30 µM (inactive) in [1]; > 30 µM (inactive) in experiment [2]; 0.584 µM (active) in experiment [3]; > 30 µM (inactive) in experiment [4]; > 30 µM (inactive) at Ephrin type-A receptor 7; > 30 µM (inactive) in [5]. Moreover, the Kd in experiment [6], in experiment [7], in experiment [8], in experiment [9], in experiment [10] and in experiment [11] was > 30 µM (inactive) in each case.
Turning to `NC(=O)c1ccc(N(C(N)=O)c2c(F)cccc2F)nc1-c1ccc(F)cc1F` [VX-702], the Kd (in experiment [1]; in [2]; in experiment [3]; in experiment [4]; on Ephrin type-A receptor 7; in experiment [5]) was > 30 µM (inactive) throughout. The Kd in experiment [6], in experiment [7], in [8], in [9], in experiment [10] and in [11] was > 30 µM (inactive) in each case.
Consider `CC[C@@](C)(Nc1ccnc(-c2c[nH]c3ncccc23)n1)C(=O)NCC(F)(F)F` [DECERNOTINIB], for which the Kd in [1] was 0.116 µM (active); in experiment [2], > 30 µM (inactive); in [3] it was 3.23 µM (active); in experiment [4] it was > 30 µM (inactive); at Ephrin type-A receptor 7, > 30 µM (inactive); in experiment [5], > 30 µM (inactive). Also, the Kd in experiment [6] is 0.426 µM (active); in [7], > 30 µM (inactive); in [8], > 30 µM (inactive); in experiment [9] it was > 30 µM (inactive); in [10], 3.41 µM (active); in experiment [11], > 30 µM (inactive).
Turning to `CC(C)(O)CC(=O)NCCn1ccc2ncnc(Nc3ccc(Oc4cccc(C(F)(F)F)c4)c(Cl)c3)c21` [TAK-285], the Kd (in [1]; in [2]; in experiment [3]; in experiment [4]; at Ephrin type-A receptor 7; in experiment [5]) was > 30 µM (inactive) in each case. Also, the Kd in experiment [6], in experiment [7], in experiment [8], in [9], in experiment [10] and in experiment [11] was > 30 µM (inactive) each time.
Take `COc1cc2ncnc(Nc3ccc(O)cc3)c2cc1OC` [WHI-P131]: the Kd (in [1]; in [2]; in experiment [3]; in experiment [4]; at Ephrin type-A receptor 7; in experiment [5]) was > 30 µM (inactive) throughout. Further, the Kd in experiment [6], in [7], in [8], in experiment [9], in experiment [10] and in [11] was > 30 µM (inactive) throughout.
For the compound `CNC(=O)c1cc(COc2nnc(Nc3ccc(Cl)cc3)c3ccoc23)ccn1` [TELATINIB], the Kd (in experiment [1]; in experiment [2]; in experiment [3]; in experiment [4]; at Ephrin type-A receptor 7; in experiment [5]) was > 30 µM (inactive) in each case. Besides, the Kd in [6], in experiment [7], in experiment [8], in experiment [9], in experiment [10] and in experiment [11] was > 30 µM (inactive) each time.
In the case of `S=C(NCc1ccc2c(c1)OCO2)N1CCN(c2ncnc3c2oc2ccccc23)CC1` [AMUVATINIB], the Kd (in experiment [1]; in experiment [2]; in experiment [3]; in experiment [4]; at Ephrin type-A receptor 7; in [5]) was > 30 µM (inactive) each time. For the same compound, the Kd in experiment [6], in experiment [7], in [8], in experiment [9], in experiment [10] and in [11] was > 30 µM (inactive) throughout.
On to `COc1cc(F)c(F)c(Nc2ccc(I)cc2F)c1NS(=O)(=O)C1(C[C@H](O)CO)CC1` [REFAMETINIB], for which the Kd (in [1]; in experiment [2]; in experiment [3]; in [4]; at Ephrin type-A receptor 7; in [5]) was > 30 µM (inactive) throughout. For the same compound, the Kd in experiment [6], in experiment [7], in experiment [8], in [9], in experiment [10] and in experiment [11] was > 30 µM (inactive) each time.
As for `Cc1ccc(C(=O)Nc2ccc(Oc3cc4cnn(C)c4cc3-c3cn[nH]c3)c(F)c2)c(=O)n1-c1ccc(F)cc1` [MERESTINIB], the Kd (in experiment [1]; in experiment [2]; in [3]; in experiment [4]; on Ephrin type-A receptor 7; in experiment [5]) was > 30 µM (inactive) in each case. The Kd in experiment [6], in experiment [7], in [8], in experiment [9], in [10] and in experiment [11] was > 30 µM (inactive) each time.
As to `C=CC(=O)Nc1cccc(Nc2nc(Nc3ccc(N4CCN(C(C)=O)CC4)cc3OC)ncc2C(F)(F)F)c1` [ROCILETINIB], the Kd in experiment [1] was > 30 µM (inactive); in experiment [2], 0.651 µM (active); in [3], > 30 µM (inactive); in experiment [4] it was > 30 µM (inactive); on Ephrin type-A receptor 7 it was > 30 µM (inactive); in experiment [5], > 30 µM (inactive). Moreover, the Kd is > 30 µM (inactive) in experiment [6]; > 30 µM (inactive) in experiment [7]; > 30 µM (inactive) in experiment [8]; > 30 µM (inactive) in [9]; > 30 µM (inactive) in experiment [10]; 0.288 µM (active) in experiment [11].
